# Source: PubChem BioAssay (NCI)
#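 Compound exposure: 48 hours, 5 concentrations, 96-well plates. The concentration for 50% growth inhibition is given as GI50. The concentration for full growth arrest is given as TGI.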
# Tests used:
# Test in all cases: NCI anticancer screen, dose series, 48 h
# HCT-116 colon = tested on: HCT-116 colon
# M14 melanoma = tested on: M14 melanoma
# OVCAR-3 ovarian = tested on: OVCAR-3 ovarian
# OVCAR-5 ovarian = tested on: OVCAR-5 ovarian
# COLO 205 colon = tested on: COLO 205 colon
# DLD-1 colon = tested on: DLD-1 colon
# HT29 colon = tested on: HT29 colon
# M19-MEL melanoma = tested on: M19-MEL melanoma
# SNB-78 CNS = tested on: SNB-78 CNS
# BT-549 breast = tested on: BT-549 breast
# DU-145 prostate = tested on: DU-145 prostate
# HS 578T breast = tested on: HS 578T breast
# MDA-MB-231 breast = tested on: MDA-MB-231 breast
# T-47D breast = tested on: T-47D breast
# HOP-18 NSCLC = tested on: HOP-18 NSCLC
SMILES,GI50 (HCT-116 colon) [µM],TGI (HCT-116 colon) [µM],TGI (M14 melanoma) [µM],TGI (OVCAR-3 ovarian) [µM],TGI (OVCAR-5 ovarian) [µM],TGI (COLO 205 colon) [µM],TGI (DLD-1 colon) [µM],TGI (HT29 colon) [µM],TGI (M19-MEL melanoma) [µM],TGI (SNB-78 CNS) [µM],TGI (BT-549 breast) [µM],TGI (DU-145 prostate) [µM],TGI (HS 578T breast) [µM],TGI (MDA-MB-231 breast) [µM],TGI (T-47D breast) [µM],TGI (HOP-18 NSCLC) [µM],GI50 (COLO 205 colon) [µM],GI50 (DU-145 prostate) [µM],GI50 (M14 melanoma) [µM],GI50 (OVCAR-5 ovarian) [µM]
O=C(N/N=C/c1cc(Cl)cc(Cl)c1[O-])c1ccccc1O.O=C(N/N=C/c1cc(Cl)cc(Cl)c1[O-])c1ccccc1O.[Mn+2],0.423,13.8,2.51,1.02,17.4,,,,,,,,,,,,,,,
COc1ccc2[nH]c(=O)cc(C)c2c1[N+](=O)[O-],,> 100,> 100,> 100,> 100,> 100,> 100,> 100,> 100,> 100,,,,,,,,,,
Cc1ccnn1CCc1ccc(Cl)cc1Cl,,> 100,> 100,45.3,> 100,> 100,,> 100,,,31.3,> 100,> 100,> 100,> 100,,,,,
Nc1nc(N)c2ncn(Cc3ccccc3CO)c2n1,,> 100,> 100,> 100,> 100,> 100,,> 100,,,> 100,> 100,> 100,> 100,> 100,,,,,
CSc1nc2c(ncn2C2OC(CO)C(O)C(O)C2O)c(=O)n1C (stereo not drawn),,> 100,,> 100,> 100,> 100,> 100,> 100,> 100,> 100,,,,,,> 100,,,,
COc1cccc(/C=N/[N+](C)(C)C)c1O,,> 10,> 10,> 10,> 10,> 10,,> 10,,,> 10,> 10,> 10,> 10,> 10,,,,,
O=C1Nc2ccccc2C1(O)Cc1ccccn1 (stereo not drawn),,> 100,> 100,> 100,> 100,> 100,,> 100,,,> 100,> 100,> 100,> 100,> 100,,,,,
COc1cc(C2c3cc4c(cc3[C@@H](Nc3cnc5ccccc5c3)C3COC(=O)[C@H]23)OCO4)cc(OC)c1O (stereo partly drawn),,2.26,,3.9,2.25,3.39,3.69,4.2,3.28,> 100,,,,,,2.65,,,,
O=c1c2cc([N+](=O)[O-])ccc2[nH]n1Cc1ccccc1Cl,,> 100,> 100,> 100,> 100,> 100,,> 100,,,,> 100,> 100,> 100,,,,,,
C=C1C(=O)OC2/C=C(CO)/C=C\C3OC3(C)CC(OC(=O)/C(C)=C/COC(C)=O)C12 (stereo not drawn),,2.83,5.64,6.68,26.9,2.99,2.49,7.39,4.15,23.4,3.25,30.2,11.8,9.13,7.53,22.1,,,,
C=CCn1c(C)nc2cc(Nc3nc(N4CCCC4)nc4nc[nH]c34)ccc21,,,> 100,,> 100,> 100,,,,,,> 100,,,,,3.16,> 100,29.6,> 100
COc1cc2c(/C=C3/C(=O)Nc4cc(C)c(O)cc43)c(Cl)[nH]c2cc1C,,8.84,5.89,3.68,15.6,4.62,,5.31,,,45.3,10.5,7.35,8.99,18.2,,,,,
O=C1C=CC2(C=C1)O[C@H](CCc1ccccc1)[C@@H](CCc1ccccc1)O2,,> 100,> 100,> 100,> 100,> 100,,> 100,,,> 100,> 100,> 100,> 100,> 100,,,,,
COc1cnc2oc3ccc(O)cc3c2c1-c1ccccc1,,45,39.8,> 100,68.2,> 100,,> 100,,,> 100,> 100,> 100,,> 100,,,,,
O=C(O)C(C1NCCS1)N1C(=O)c2ccccc2C1=O (stereo not drawn),,> 100,> 100,> 100,> 100,> 100,,> 100,,,> 100,> 100,> 100,> 100,> 100,,,,,
CC1=CC2=C(C=O)C(=O)[C@](C)(O)[C@@H](O)C2=CO1,,> 59.9,,5.58,> 100,> 82,> 100,> 100,> 73.5,> 100,,,,,,> 92.7,,,,
C=C1C(=O)OC2/C=C(\CO)C3OC3C3OC3(C)CC(OC(=O)/C(=C/C)COC(C)=O)C12 (stereo not drawn),,2.96,6.64,11.4,28.7,3.06,2.53,15.3,3.94,13.4,3.48,32.3,20.4,19.5,9.7,21.6,,,,
COc1ccc(C(=O)c2[nH]c(Nc3cc(C)ccn3)c(C(=S)Nc3ccccc3)c2N)cc1,,50.6,42.5,> 100,74.1,41.5,,39.4,,,42.5,> 100,,44.5,> 100,,,,,
Cc1c2cnccc2c(C)c2c1c1ccccc1n2CCCCCCCl,,> 50,,> 50,> 50,> 34.1,> 50,> 50,> 50,49.8,,,,,,> 7.93,,,,
O=C1Sc2sc(=S)sc2SC1c1ccccc1 (stereo not drawn),,> 100,,> 31.6,> 100,> 63.6,> 90.9,> 100,> 100,> 75.8,,,,,,> 100,,,,
